Target: [Pyruvate dehydrogenase (acetyl-transferring)] kinase isozyme 1, mitochondrial (Homo sapiens, UniProt Q15118)
Experiment: Binding affinity to pyruvate dehydrogenase kinase 1 (unknown origin) incubated for 90 mins by VER-00160364 probe based fluorescence polarization assay

[Pyruvate dehydrogenase (acetyl-transferring)] kinase isozyme 1, mitochondrial, sequence (Q15118 whole entry): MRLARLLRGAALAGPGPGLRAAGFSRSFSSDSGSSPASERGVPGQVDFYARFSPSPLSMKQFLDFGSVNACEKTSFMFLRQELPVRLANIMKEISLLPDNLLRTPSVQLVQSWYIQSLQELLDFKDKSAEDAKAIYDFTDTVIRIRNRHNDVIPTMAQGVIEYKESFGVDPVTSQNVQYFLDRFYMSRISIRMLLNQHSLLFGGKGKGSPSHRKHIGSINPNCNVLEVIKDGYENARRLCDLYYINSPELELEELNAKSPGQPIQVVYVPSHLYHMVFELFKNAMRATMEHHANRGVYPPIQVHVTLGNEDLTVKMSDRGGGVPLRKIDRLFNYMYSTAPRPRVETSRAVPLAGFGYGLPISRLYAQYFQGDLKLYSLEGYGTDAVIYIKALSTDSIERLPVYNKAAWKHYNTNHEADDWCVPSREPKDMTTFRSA

| Compound | IC50 |
| --- | --- |
| CCc1cc2ccccc2nc1-c1ccc(N(Cc2cccnc2)C(=O)c2ccc(O)cc2O)cc1 | 100 nM |
| O=C(c1ccc(O)cc1O)N(Cc1cccnc1)c1ccc(-c2ccc(NC3CC3)nn2)cc1 | 1000 nM |
| Cc1cc(S(=O)(=O)NCCCC(N)=O)cnc1-c1ccc(N(Cc2ccccc2)C(=O)c2ccc(O)cc2O)cc1 | 10 nM |
| CN(C)C(=O)c1ccc(N(Cc2ccn(C)n2)C(=O)c2cc(Cl)c(O)cc2O)cc1 | 10000 nM |
| O=C(c1ccc(O)cc1O)N(Cc1ccccc1)c1ccc(-c2ncnc3cccc(F)c23)cc1 | 1000 nM |
| Cc1cc(S(=O)(=O)NCc2cccnc2)cnc1-c1ccc(N(Cc2ccccc2)C(=O)c2ccc(O)cc2O)cc1 | 10 nM |
| O=C(c1ccc(O)cc1O)N(Cc1ccccc1)c1ccc(-c2nc(-c3ccsc3)nc3ccccc23)cc1 | 100 nM |
| Cc1cc(S(=O)(=O)N2CC(F)(F)C2)cnc1-c1ccc(N(Cc2cccnc2)C(=O)c2ccc(O)cc2O)cc1 | 10 nM |
| Cc1cc(S(=O)(=O)N2CCCCC2)cnc1-c1ccc(N(Cc2ccccc2)C(=O)c2ccc(O)cc2O)cc1 | 100 nM |
| Cc1cc(S(=O)(=O)N(C)CCO)cnc1-c1ccc(N(Cc2ccsc2)C(=O)c2ccc(O)cc2O)cc1 | 100 nM |
| NC(=O)c1nc(-c2ccc(N(Cc3ccccc3)C(=O)c3ccc(O)cc3O)cc2)c2ccccc2n1 | 10000 nM |
| CN(C)C(=O)c1ccc(N(Cc2cccc(O)c2)C(=O)c2cc(Cl)c(O)cc2O)cc1 | 100 nM |
| O=C(c1ccc(O)cc1O)N(Cc1ccccc1)c1ccc(-c2ncnc3ccsc23)cc1 | 10000 nM |
| O=C(c1ccc(O)cc1O)N(Cc1cccnc1)c1ccc(-c2ncnc3cccc(F)c23)cc1 | 10 nM |
| Cc1cnc(C#N)nc1-c1ccc(N(Cc2ccccc2)C(=O)c2ccc(O)cc2O)cc1 | 100 nM |
| Cc1c(-c2ccc(N(Cc3ccccc3)C(=O)c3ccc(O)cc3O)cc2)ccc2[nH]ncc12 | 1000 nM |
| Cc1cc2ccccc2nc1-c1ccc(N(Cc2ccc(F)c(F)c2)C(=O)c2ccc(O)cc2O)cc1 | 100 nM |
| O=C(Nc1ccc(N(Cc2ccccc2)C(=O)c2ccc(O)cc2O)cc1)c1ccccc1 | 1000 nM |
| Cc1cncnc1-c1ccc(N(Cc2ccccc2)C(=O)c2ccc(O)cc2O)cc1 | 100 nM |
| CN(Cc1ccc2ncccc2c1)C(=O)c1ccc(N(Cc2cccnc2)C(=O)c2ccc(O)cc2O)cc1 | 100 nM |

| Compound | IC50 |
| --- | --- |
| COc1ccccc1-c1ccc(N(Cc2cccnc2)C(=O)c2ccc(O)cc2O)cc1 | 1000 nM |
| CN(C)C(=O)c1ccc(N(Cc2c[nH]cn2)C(=O)c2cc(Cl)c(O)cc2O)cc1 | 1000 nM |
| Cc1ncc(C)c(-c2ccc(N(Cc3cccnc3)C(=O)c3ccc(O)cc3O)cc2)n1 | 10 nM |
| Cc1cn(-c2ccc(-c3ccc(N(Cc4cccnc4)C(=O)c4ccc(O)cc4O)cc3)nn2)cn1 | 100 nM |
| Cc1cc(S(=O)(=O)N2CCC(F)(F)CC2)cnc1-c1ccc(N(Cc2ccsc2)C(=O)c2ccc(O)cc2O)cc1 | 1000 nM |
| CC(=O)N1CCN(S(=O)(=O)c2cnc(-c3ccc(N(Cc4cccnc4)C(=O)c4ccc(O)cc4O)cc3)c(C)c2)CC1 | 10 nM |
| COc1ccc(-c2ccc(N(Cc3cccnc3)C(=O)c3ccc(O)cc3O)cc2)c(OC)c1 | 1000 nM |
| COc1ccc(CN(C)C(=O)c2ccc(N(Cc3ccccc3)C(=O)c3cc(Cl)c(O)cc3O)cc2)cc1 | 100 nM |
| CCc1nccnc1-c1ccc(N(Cc2ccsc2)C(=O)c2ccc(O)cc2O)cc1 | 100 nM |
| Cc1cc(S(=O)(=O)N2CCN(C)CC2)cnc1-c1ccc(N(Cc2ccsc2)C(=O)c2ccc(O)cc2O)cc1 | 10 nM |
| O=C(c1ccc(O)cc1O)N(Cc1cccnc1)c1ccc(-c2nncc3ccccc23)cc1 | 100 nM |
| Cc1cncnc1-c1ccc(N(Cc2cccnc2)C(=O)c2ccc(O)cc2O)cc1 | 100 nM |
| O=C(c1ccc(O)cc1O)N(Cc1ccccc1)c1ccc(-c2cnc3ccccc3n2)cc1 | 10000 nM |
| NC(=O)c1nc(-c2ccc(N(Cc3cccnc3)C(=O)c3ccc(O)cc3O)cc2)c2ccccc2n1 | 100 nM |
| CN(Cc1cccc2cccnc12)C(=O)c1ccc(N(Cc2ccccc2)C(=O)c2ccc(O)cc2O)cc1 | 100 nM |
| CN(C)C(=O)c1ccc(N(CCN2CCCCC2)C(=O)c2cc(Cl)c(O)cc2O)cc1 | 100 nM |
| O=C(NCc1ccc(Cl)cc1)c1ccc(N(Cc2cccnc2)C(=O)c2ccc(O)cc2O)cc1 | 100 nM |
| O=C(c1ccc(O)cc1O)N(Cc1ccsc1)c1ccc(-c2ccncc2C(F)(F)F)cc1 | 1000 nM |
| CN(Cc1ccc2ccccc2n1)C(=O)c1ccc(N(Cc2ccsc2)C(=O)c2ccc(O)cc2O)cc1 | 100 nM |

Continued by falling IC50, values first:

| IC50 | Compound |
| --- | --- |
| 10000 nM | CN(Cc1ccc2ccccc2c1)C(=O)c1ccc(N(Cc2ccccc2)C(=O)c2ccc(O)cc2O)cc1 |
| 10000 nM | CCOC(=O)c1nc(C)nc(-c2ccc(N(Cc3ccccc3)C(=O)c3ccc(O)cc3O)cc2)c1C |
| 1000 nM | O=C(c1ccc(O)cc1O)N(Cc1cccnc1)c1ccc(-c2ccc(Cl)cc2Cl)cc1 |
| 1000 nM | O=C(c1ccc(O)cc1O)N(Cc1cccnc1)c1ccc(-c2nc(-c3ccsc3)nc3ccccc23)cc1 |
| 1000 nM | O=C(c1ccc(O)cc1O)N(Cc1ccccc1)c1ccc(-c2ncccc2CO)cc1 |
| 1000 nM | CCNC(=O)Nc1ccc(N(Cc2ccccc2)C(=O)c2ccc(O)cc2O)cc1 |
| 1000 nM | Cc1sc2ncnc(-c3ccc(N(Cc4ccsc4)C(=O)c4ccc(O)cc4O)cc3)c2c1C |
| 1000 nM | Cc1nc(N)ccc1-c1ccc(N(Cc2ccccc2)C(=O)c2ccc(O)cc2O)cc1 |
| 1000 nM | CN(Cc1cccc2ccccc12)C(=O)c1ccc(N(Cc2ccccc2)C(=O)c2ccc(O)cc2O)cc1 |
| 1000 nM | Cc1cc2ccccc2nc1-c1ccc(N(Cc2ccc(CN3CCOCC3)cc2)C(=O)c2ccc(O)cc2O)cc1 |
| 1000 nM | O=C(c1ccc(O)cc1O)N(Cc1cccnc1)c1ccc(-c2nc(-c3ccccc3)nc3ccccc23)cc1 |
| 1000 nM | C[C@@H](c1ccccc1)N(C(=O)c1cc(Cl)c(O)cc1O)c1ccc(C(=O)N(C)C)cc1 |
| 1000 nM | Cc1nc(-c2ccc(N(Cc3ccccc3)C(=O)c3ccc(O)cc3O)cc2)c2ccccc2n1 |
| 1000 nM | O=C(Cc1ccccc1)Nc1ccc(N(Cc2ccccc2)C(=O)c2ccc(O)cc2O)cc1 |
| 1000 nM | O=C(c1ccc(O)cc1O)N(Cc1cccnc1)c1ccc(-c2ccccc2Cl)cc1 |
| 1000 nM | CSc1nc(Cl)cc(-c2ccc(N(Cc3cccnc3)C(=O)c3ccc(O)cc3O)cc2)n1 |
| 1000 nM | CCc1cc2ccccc2nc1-c1ccc(N(Cc2ccsc2)C(=O)c2ccc(O)cc2O)cc1 |
| 1000 nM | CN(C)CCN(C)C(=O)c1ccc(N(Cc2cccnc2)C(=O)c2ccc(O)cc2O)cc1 |
| 1000 nM | O=C(c1ccc(O)cc1O)N(Cc1ccccc1)c1ccc(-c2nc(Cl)nc3[nH]ccc23)cc1 |
| 1000 nM | Cc1c(-c2ccc(N(Cc3ccccc3)C(=O)c3ccc(O)cc3O)cc2)ccc2c1NC(=O)C2=O |
| 1000 nM | CNC(=O)c1ccc(N(Cc2cccnc2)C(=O)c2ccc(O)cc2O)cc1 |
| 100 nM | Cc1csc2ncnc(-c3ccc(N(Cc4ccsc4)C(=O)c4ccc(O)cc4O)cc3)c12 |
| 100 nM | Cc1cc2ccccc2nc1-c1ccc(N(Cc2cccc3ccccc23)C(=O)c2ccc(O)cc2O)cc1 |
| 100 nM | CSc1nc2c(c(-c3ccc(N(Cc4cccnc4)C(=O)c4ccc(O)cc4O)cc3)n1)CCC2 |
| 100 nM | Cc1nc(-c2ccc(N(Cc3ccccc3)C(=O)c3ccc(O)cc3O)cc2C)c2ccccc2n1 |
| 100 nM | CN(C)C(=O)c1ccc(N(Cc2cccc(C#N)c2)C(=O)c2cc(Cl)c(O)cc2O)cc1 |

| IC50 | Compound |
| --- | --- |
| 100 nM | CC(=O)Nc1ccc(-c2ccc(N(Cc3cccnc3)C(=O)c3ccc(O)cc3O)cc2)c(C)c1 |
| 100 nM | O=C(c1ccc(O)cc1O)N(Cc1cccnc1)c1ccc(-c2ncnc3ccc(Cl)cc23)cc1 |
| 100 nM | Cc1cc(S(=O)(=O)NCCN(C)C)cnc1-c1ccc(N(Cc2ccccc2)C(=O)c2ccc(O)cc2O)cc1 |
| 100 nM | CN(Cc1cccc2ncccc12)C(=O)c1ccc(N(Cc2ccsc2)C(=O)c2ccc(O)cc2O)cc1 |
| 100 nM | COc1ccc(CNC(=O)c2ccc(N(Cc3cccnc3)C(=O)c3ccc(O)cc3O)cc2)cc1 |
| 100 nM | COc1cc2cc(Cl)ccc2nc1-c1ccc(N(Cc2ccsc2)C(=O)c2ccc(O)cc2O)cc1 |
| 100 nM | O=C(c1ccc(N(Cc2ccccc2)C(=O)c2ccc(O)cc2O)cc1)N1CCC(O)CC1 |
| 100 nM | CCOC(=O)c1nc(-c2ccc(N(Cc3cccnc3)C(=O)c3ccc(O)cc3O)cc2)c2ccccc2n1 |
| 100 nM | CN(C)C(=O)c1ccc(N(CC2CCCC2)C(=O)c2cc(Cl)c(O)cc2O)cc1 |
| 100 nM | CN(Cc1cccc2cccnc12)C(=O)c1ccc(N(Cc2ccsc2)C(=O)c2ccc(O)cc2O)cc1 |
| 100 nM | Cc1nccnc1-c1ccc(N(Cc2cccnc2)C(=O)c2ccc(O)cc2O)cc1 |
| 100 nM | CN(Cc1ccnc2ccccc12)C(=O)c1ccc(N(Cc2ccccc2)C(=O)c2ccc(O)cc2O)cc1 |
| 100 nM | COCCN(C)S(=O)(=O)c1cnc(-c2ccc(N(Cc3ccccc3)C(=O)c3ccc(O)cc3O)cc2)c(C)c1 |
| 100 nM | Cc1cc(S(=O)(=O)NCCN(C)C)cnc1-c1ccc(N(Cc2cccnc2)C(=O)c2ccc(O)cc2O)cc1 |
| 100 nM | CN(C)C(=O)c1ccc(N(Cc2cccnc2)C(=O)c2ccc(O)cc2O)cc1 |
| 100 nM | Cc1cc2cc(Cl)ccc2nc1-c1ccc(N(Cc2cccnc2)C(=O)c2ccc(O)cc2O)cc1 |
| 100 nM | Cc1cc(Cl)nnc1-c1ccc(N(Cc2ccccc2)C(=O)c2ccc(O)cc2O)cc1 |
| 100 nM | Cc1cc(S(=O)(=O)N2CC(F)(F)C2)cnc1-c1ccc(N(Cc2ccsc2)C(=O)c2ccc(O)cc2O)cc1 |
| 100 nM | CN(C)C(=O)c1ccc(N(CC2CCCC2)C(=O)c2ccc(O)cc2O)cc1 |
| 100 nM | COc1ccc2nc(-c3ccc(N(Cc4ccsc4)C(=O)c4ccc(O)cc4O)cc3)c(C)cc2c1 |
| 100 nM | COc1cnc(Cl)nc1-c1ccc(N(Cc2ccccc2)C(=O)c2ccc(O)cc2O)cc1 |
| 10 nM | CN(Cc1ccc2nccnc2c1)C(=O)c1ccc(N(Cc2cccnc2)C(=O)c2ccc(O)cc2O)cc1 |
| 10 nM | Cc1cc(S(=O)(=O)NCc2ccccn2)cnc1-c1ccc(N(Cc2cccnc2)C(=O)c2ccc(O)cc2O)cc1 |
| 10 nM | Cc1ccc(CN(C(=O)c2ccc(O)cc2O)c2ccc(-c3nc4ccccc4cc3C)cc2)cc1 |
| 10 nM | CC(=O)N1CCN(S(=O)(=O)c2cnc(-c3ccc(N(Cc4ccccc4)C(=O)c4ccc(O)cc4O)cc3)c(C)c2)CC1 |
